Source: US7452680B2, “MCT1 transporters expressed in blood brain barrier cells” (XenoPort, Inc., priority 2004, dated 2008)

How the values were obtained:
[1] = biological target: T1, MCT1 (Homo sapiens, UniProt P53985); conditions: cited from earlier work
T1 sequence (P53985 1-500): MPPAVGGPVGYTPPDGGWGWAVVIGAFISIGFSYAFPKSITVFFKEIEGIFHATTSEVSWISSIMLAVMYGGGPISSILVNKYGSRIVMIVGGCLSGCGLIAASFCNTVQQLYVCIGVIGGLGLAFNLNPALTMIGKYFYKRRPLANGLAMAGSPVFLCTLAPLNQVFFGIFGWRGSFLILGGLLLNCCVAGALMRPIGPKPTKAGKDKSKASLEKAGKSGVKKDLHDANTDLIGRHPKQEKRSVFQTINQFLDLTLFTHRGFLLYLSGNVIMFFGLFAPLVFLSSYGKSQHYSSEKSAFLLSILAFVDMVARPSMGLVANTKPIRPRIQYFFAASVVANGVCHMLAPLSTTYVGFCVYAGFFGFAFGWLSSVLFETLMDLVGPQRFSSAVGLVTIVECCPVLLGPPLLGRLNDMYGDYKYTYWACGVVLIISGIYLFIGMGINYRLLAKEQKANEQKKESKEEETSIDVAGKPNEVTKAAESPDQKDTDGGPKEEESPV
T1 sequence (P35613 140-385 partner limits assumed): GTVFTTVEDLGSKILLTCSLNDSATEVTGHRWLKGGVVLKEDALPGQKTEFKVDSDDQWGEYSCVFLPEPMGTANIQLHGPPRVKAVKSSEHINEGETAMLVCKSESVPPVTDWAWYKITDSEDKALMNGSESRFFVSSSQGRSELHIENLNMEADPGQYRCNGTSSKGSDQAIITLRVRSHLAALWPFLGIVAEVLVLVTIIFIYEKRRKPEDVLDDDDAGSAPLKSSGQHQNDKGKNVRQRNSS

[2] = biological target: T1, MCT1; assay: Inducible uptake by LLCPK-TREx cell line containing pTREx-hMCT1 (FIG. 10); format: cell-based; set-up: expressed in transfected cells; host or cells: LLCPK-TREx cells; conditions: vs non-tet treated (un-induced) or parental LLCPK cells; pH 6.8, 2 minutes
Procedure: FIG. 10 depicts the results of an uptake experiment showing inducible uptake of (A) ^14C-lactate and (B) thiopheneglyoxylic acid by the LLCPK-TREx cell line containing plasmid pTREx-hMCT1. Uptake of ^14C-lactate was measured as follows: radiolabeled ^14C-lactic acid (˜50,000 cpm/well) was added to each well in triplicate. Experiments were performed in an MES-based saline buffer adjusted to pH 6.8. Plates were incubated at room temperature for 2 minutes. Excess radiolabeled substrate was removed and cells were washed three times with a 96-well plate washer with cold assay buffer. Scintillation fluid was added to each well, the plates were sealed and counted in a 96-well plate-based scintillation counter. Uptake of thiopheneglyoxylic acid was measured similarly to ^14C-lactate, except cells were washed and compound extracted with a 50% ethanol solution. Levels of extracted thiopheneglyoxylate were measured using mass spectroscopy as described above. Negative control values were determined by measuring the uptake into non-tet treated (un-induced) or parental LLCPK (constitutive) cells.

[3] = biological target: T2, hMCT1-rCD147 fusion protein (Homo sapiens, UniProt P53985, D490E); assay: Competitive binding and uptake assay, inhibition of 14C-lactate uptake (FIG. 13); format: cell-based; set-up: rCD147 (rat CD147/basigin) fusion partner; expressed in transfected cells; conditions: cells expressing the fusion protein vs cells endogenously expressing hMCT1
T2 sequence (P53985 with tags, fused parts or gaps D490E): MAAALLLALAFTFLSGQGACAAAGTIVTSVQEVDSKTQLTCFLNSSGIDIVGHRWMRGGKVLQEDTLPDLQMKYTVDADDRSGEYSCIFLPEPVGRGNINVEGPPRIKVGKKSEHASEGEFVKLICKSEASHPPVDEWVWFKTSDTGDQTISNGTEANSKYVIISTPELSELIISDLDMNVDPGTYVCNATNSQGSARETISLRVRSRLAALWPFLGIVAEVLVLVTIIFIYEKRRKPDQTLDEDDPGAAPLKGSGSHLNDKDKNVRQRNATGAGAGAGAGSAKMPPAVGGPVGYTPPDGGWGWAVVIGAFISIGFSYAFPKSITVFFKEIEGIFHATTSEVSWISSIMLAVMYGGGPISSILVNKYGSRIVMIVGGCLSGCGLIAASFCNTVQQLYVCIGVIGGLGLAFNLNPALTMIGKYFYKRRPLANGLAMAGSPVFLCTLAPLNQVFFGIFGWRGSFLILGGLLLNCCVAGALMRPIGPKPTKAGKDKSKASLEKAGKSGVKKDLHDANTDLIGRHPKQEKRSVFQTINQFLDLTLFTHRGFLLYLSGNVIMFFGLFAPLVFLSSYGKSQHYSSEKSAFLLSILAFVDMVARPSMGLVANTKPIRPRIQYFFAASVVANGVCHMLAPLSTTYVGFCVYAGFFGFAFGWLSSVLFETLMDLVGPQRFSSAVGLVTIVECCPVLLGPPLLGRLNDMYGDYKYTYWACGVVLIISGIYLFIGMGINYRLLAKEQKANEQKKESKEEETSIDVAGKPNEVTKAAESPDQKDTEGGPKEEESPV
Procedure: To determine whether a compound interacts with the MCT1 transporter, a competition-binding assay was developed. This assay measures how different concentrations of a test compound block the uptake of a radiolabeled substrate such as lactate. The half-maximal inhibitory concentration (IC50) for inhibition of transport of a substrate by a test compound is an indication of the affinity of the test compound for the MCT1 transporter. Competition binding studies were performed as follows. HEK-PEAK cells were plated in 96-well plates at 100,000 cells/well and incubated at 37° C. for 24 hours. Radiolabeled ^14C-lactic acid (˜50,000 cpm/well) was added to each well in the presence and absence of various concentrations of unlabeled lactic acid in duplicate or triplicate. Competition experiments were performed in an MES-based saline buffer adjusted to pH 6.8. Plates were incubated at room temperature for 2 minutes. Excess radiolabeled substrate was removed and cells were washed three times with a 96-well plate washer with cold assay buffer. Scintillation fluid was added to each well, the plates were sealed and counted in a 96-well plate-based scintillation counter. Data were graphed and analyzed using non-linear regression analysis with Prism Software (GraphPad, Inc., San Diego, Calif.). Competition binding in HEK-PEAK cells is illustrated in FIG. 4B.
To confirm the pharmacology of the hMCT1-rCD147 fusion proteins was the same as that of the unmodified version of hMCT1, the hMCT1-rCD147-expressing cells lines were tested in a competitive binding and uptake assay. Eight different MCT1 substrates were tested for their ability to inhibit the uptake of ^14C-lactate into isolated cell lines inducibly or constitutively expressing hMCT1-rCD147 fusion protein and into cells endogenously expressing hMCT1.

[4] = biological target: T1, MCT1; assay: Uptake of tritiated GHB, cells over expressing MCT1 protein (FIG. 14); format: cell-based; set-up: expressed in transfected cells; host or cells: LLCPK-TREx cells; conditions: compared with control cells
Procedure: (§1) To determine whether […] (GHB) is a substrate for MCT1, an uptake assay was performed using tritiated […].

[5] = biological target: T2, hMCT1-rCD147 fusion protein; assay: Uptake of tritiated GHB, cells expressing hMCT1-rCD147 fusion protein (FIG. 14); format: cell-based; set-up: rCD147 (rat CD147/basigin) fusion partner; expressed in transfected cells; host or cells: LLCPK-TREx cells (pTREx-hMCT1-rCD147 inducible, pMO-hMCT1-rCD147 constitutive); conditions: inducibly or constitutively expressing cells, compared with uninduced or control cells
Procedure: as §1

[6] = biological target: PgP (Homo sapiens, UniProt P08183); assay: Cellular transwell monolayer efflux assay, MDCK cells transfected with TREx-PgP (FIG. 8)
PgP, sequence (P08183 whole entry): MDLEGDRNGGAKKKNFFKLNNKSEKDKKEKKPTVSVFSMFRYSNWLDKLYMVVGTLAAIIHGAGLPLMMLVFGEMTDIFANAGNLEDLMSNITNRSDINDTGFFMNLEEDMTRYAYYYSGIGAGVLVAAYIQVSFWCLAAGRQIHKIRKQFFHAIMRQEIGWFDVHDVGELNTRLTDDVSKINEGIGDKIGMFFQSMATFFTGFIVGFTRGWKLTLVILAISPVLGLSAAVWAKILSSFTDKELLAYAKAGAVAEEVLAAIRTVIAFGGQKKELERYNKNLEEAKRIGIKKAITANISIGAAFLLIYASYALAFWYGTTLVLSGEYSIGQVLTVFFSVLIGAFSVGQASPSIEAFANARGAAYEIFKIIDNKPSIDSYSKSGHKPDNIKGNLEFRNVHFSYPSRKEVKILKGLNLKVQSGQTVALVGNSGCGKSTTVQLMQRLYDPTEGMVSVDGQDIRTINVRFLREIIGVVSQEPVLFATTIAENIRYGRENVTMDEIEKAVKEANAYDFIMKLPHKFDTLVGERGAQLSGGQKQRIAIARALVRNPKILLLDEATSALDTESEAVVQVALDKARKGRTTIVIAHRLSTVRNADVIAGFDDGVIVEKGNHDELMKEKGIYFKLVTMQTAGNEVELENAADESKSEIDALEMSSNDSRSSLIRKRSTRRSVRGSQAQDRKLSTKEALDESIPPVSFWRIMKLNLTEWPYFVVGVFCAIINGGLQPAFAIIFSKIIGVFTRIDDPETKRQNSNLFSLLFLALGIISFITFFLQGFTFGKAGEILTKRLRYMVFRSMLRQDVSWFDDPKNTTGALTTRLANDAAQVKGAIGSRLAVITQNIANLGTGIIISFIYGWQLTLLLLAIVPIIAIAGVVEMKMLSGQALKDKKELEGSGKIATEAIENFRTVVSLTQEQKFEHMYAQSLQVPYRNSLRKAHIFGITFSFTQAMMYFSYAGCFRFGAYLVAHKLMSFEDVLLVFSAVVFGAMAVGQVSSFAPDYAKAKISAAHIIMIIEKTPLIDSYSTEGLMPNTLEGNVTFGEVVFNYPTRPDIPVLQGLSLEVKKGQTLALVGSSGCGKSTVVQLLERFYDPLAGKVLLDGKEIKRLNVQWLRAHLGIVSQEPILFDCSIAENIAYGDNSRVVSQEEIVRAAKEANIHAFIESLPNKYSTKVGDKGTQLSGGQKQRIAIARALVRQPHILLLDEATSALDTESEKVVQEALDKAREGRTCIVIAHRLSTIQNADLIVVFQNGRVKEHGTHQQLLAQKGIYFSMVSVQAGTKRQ
Procedure: A third type of efflux transporter assay is the cellular transwell monolayer efflux assay. […] The cells form a polarized monolayer. The transwell dishes have apical and basolateral chambers that are separated by the filter membrane on which the polarized monolayer is situated. Assays are performed by placing a test compound in either the apical or basolateral chamber, followed by sampling the opposite chamber after a predetermined period of time such as 60-120 minutes and measuring the amount of the test compound. The test compound can be measured by methods such as radiolabel detection or LC-MS-MS analysis. Assays are performed in the presence and absence of an efflux transporter inhibitor or competitor. Efflux transporter inhibitors or competitors increase apical to basolateral transport and decrease basolateral to apical transport of compounds that are efflux transporter substrates. Apparent permeability (Papp) of test compounds is measured. […] Test compounds that generate ratios between 1.5 and 2.0 require additional testing to determine if they are efflux transporter substrates.
MDCK cells transfected with the tetracycline-inducible TREx-PgP expression vector were seeded on polycarbonate filter membranes in transwell dishes and grown for 3-5 days, yielding a polarized monolayer with tight junctions between cells. […] The left set of bars depicts apical to basolateral transport, while the right set of bars depicts basolateral to apical transport.

[7] = biological target: T1, MCT1; assay: 14C-lactate uptake assay in HEK-TREx cells transfected with tet-MCT1 inducible construct; format: cell-based; set-up: expressed in transfected cells; conditions: tet-induced vs non-induced
Procedure: Human MCT1 (hMCT1) is expressed at high levels in most mammalian cell lines. hMCT1 is a high capacity transporter, so low levels of hMCT1 expression may result in significant substrate transport. To control the level of hMCT expression, an inducible tet promoter-hMCT1 expression construct was prepared using the Gateway plasmid cloning system following manufacturers instructions (Invitrogen). The tet-MCT1 inducible construct was transfected into HEK-TREx cells using Fugene transfection following manufacturers instructions (Roche Biosciences). When the transfected cells were tested in an uptake assay, the amount of tetracycline-inducible MCT1 -mediated transport of ^14C-lactate was about 20% higher than the level of endogenous uptake seen in non-induced cells. The addition of an excess of unlabeled lactate competed with the uptake of ^14C-lactate.

[8] = biological target: T1, MCT1; assay: 14C-lactate uptake in Xenopus oocytes injected with MCT1 cRNA (FIG. 2); format: cell-based; set-up: expressed in transfected cells; host or cells: Xenopus oocytes injected with MCT1 cRNA; conditions: oocytes expressing MCT1 vs oocytes expressing MCT4 or noninjected control oocytes
[9] = 2.5 nM 3H-vinblastine, in the presence of 250 μM verapamil

Row | Compound | Reported Affinity for MCT1 [1] | affinity for the MCT1-rCD147 fusion protein compared with hMCT1 alone [3] | further results
1 | O=C(O)C(=O)c1cccs1 [2-Thiophene glyoxylate] | 3 mM | higher affinity | MCT1 substrate uptake upon induction with tetracycline [2]: significant increase
2 | CCCC(=O)O [Butyric Acid] | 8 mM |  | 
3 | CC1(C)S[C@@H]2[C@H](NC(=O)C(C(=O)Oc3ccc4c(c3)CCC4)c3ccccc3)C(=O)N2[C@H]1C(=O)O (stereo partly drawn) [Carindicillin] | >5 mM |  | 
4 | CC(C)C[C@H](O)C(=O)O [Compound 2, L-alpha-hydroxy-isocaproic acid] |  | higher affinity | 
5 | O=C(O)c1ccccc1 [Compound 5, benzoic acid] |  | higher affinity | 
6 | O=C(O)Cc1ccccc1 [Compound 8, phenylacetic acid] |  | higher affinity | 
7 | CCC(O)C(=O)O (stereo not drawn) [GHB, α-hydroxybutyrate] |  |  | uptake of labeled GHB [4]: increased uptake; uptake of labeled GHB [5]: increased uptake
8 | CC(O)C(=O)O (stereo not drawn) [Lactic Acid, lactic acid] | 2 mM | higher affinity | 
9 | O=C(O)c1cccnc1 [Nicotinic Acid, nicotinic acid] | 4 mM | higher affinity | 
10 | O=C(CCc1ccc(O)cc1)c1c(O)cc(O)cc1O [Phloretin] | 0.2 mM |  | 
11 | CC(=O)C(=O)O [Pyruvic Acid] | 1 mM |  | 
12 | O=C(O)c1ccccc1O [Salicylic Acid] | >5 mM |  | 
13 | O=C(O)c1cc(/N=N/c2ccc(S(=O)(=O)Nc3ccccn3)cc2)ccc1O [Sulfasalazine] | 0.15 mM |  | 
14 | CC[C@]1(O)C[C@@H]2CN(CCc3c([nH]c4ccccc34)[C@@](C(=O)OC)(c3cc4c(cc3OC)N(C)[C@H]3[C@@](O)(C(=O)OC)[C@H](OC(C)=O)[C@]5(CC)C=CCN6CC[C@]43[C@@H]65)C2)C1 [^3H-vinblastine] |  |  | Apical to basolateral transport [6, 9]: strongly increased; basolateral to apical transport [6, 9]: strongly decreased; efflux transporter substrate status ([6]; conclusion from transport with and without verapamil): substrate of PgP
15 | ^14C-lactic acid [^14C-lactate] |  |  | tetracycline-inducible MCT1-mediated transport, higher than endogenous uptake in non-induced cells [7]: about 20%; MCT1 substrate uptake upon induction with tetracycline [2]: significant increase; 14C-lactate uptake [8]: higher levels
